Values of other authors, collected in article PMC4306510 (Bioconjugate Chemistry, 2014).

Conditions: in 0.1 M aqueous NaOH

For `O=C(O)c1ccc2c(c1)C(=O)OC21c2ccc(O)cc2Oc2cc(O)ccc21` [5-carboxy fluorescein], the “quantum yield of the standard” value is listed as 95%.
